Measurements taken from patent US11746103B2, “ALK-5 inhibitors and uses thereof” (Sumitomo Pharma Oncology, Inc., priority 2020, dated 2023).
Like-named read-outs stand apart in the source and are kept apart here.

Columns and labels:
ALK-5 = ALK-5 (Homo sapiens (Human), UniProt P36897); test: LanthaScreen Eu Kinase Binding Assay, ALK-5; conditions: for IC50: read-out: Kinase Inhibition: ALK5 IC50
Protocol: Activity determinations and selectivity were conducted by Thermo Fisher Scientific “SelectScreen™ Biochemical Kinase Profiling Service” using their “LanthaScreen™ Eu Kinase Binding Assay Screening” (www.thermofisher.com/selectscreen). Binding of an Alexa Fluor™ conjugate or “tracer” to a kinase is detected by addition of a Eu-labeled anti-tag antibody. Binding of the tracer and antibody to a kinase results in a high degree of FRET, whereas displacement of the tracer with a kinase inhibitor results in a loss of FRET. This assay is carried out by mixing the compound tested with the reagents and reading, no development step is required. Life Technologies' Kinase Tracers are based on ATP-competitive kinase inhibitors, making them suitable for detection of any compounds that bind to the ATP site. Inhibitors that bind the ATP site include both Type I kinase inhibitors, which bind solely to the ATP site, and Type II inhibitors (e.g., Gleevec®/Imatinib, Sorafenib, BIRB-796), which bind to both the ATP site and a second site often referred to as the allosteric site. […] For 10 point titrations, 3-fold serial dilutions are conducted from the starting concentration (see Table 2 below). [table] All Kinase/Antibody Mixtures are diluted to a 2× working concentration in the specified kinase buffer. The 4× AlexaFluor labeled Tracer is prepared in Kinase Buffer. Bar-coded, low volume, white 384-well plate (Greiner Cat. #784207) […] 2. 3.84 μL—Kinase Buffer […] 4. 4.0 μL—4× Tracer 5. 30-second plate shake 6. 60-minute incubation at room temperature 7. […] The LanthaScreen Eu Kinase Binding Assay data is analyzed using the equations in Table 3 for each set of data points. [table] Data generated were plotted using the graphing software XLfit from IDBS. The dose response curve is curve fit to model number 205.

[1] = system: TGF-beta induced SMAD signaling; test: RDSR (RD SMAD reporter) Cellular Reporter Assay; type: cell-based; conditions: Homo sapiens
Description: TGF-β signaling is triggered when the activated TGF-β homodimer binds to the TGF-β receptor 2, which in turn leads to the recruitment and phosphorylation of TGF-β receptor 1 (ALK5). Activated TGF-β receptor 1 phosphorylates the signal transduction molecules SMAD2 and SMAD3. These bind to common mediator SMAD4 and translocate to the nucleus where they bind to short conserved DNA sequences called the SMAD binding element and induce the transcription of various target genes. […] Certain example compounds were also or alternatively assayed using the RDSR Cellular Reporter Assay. Overview and Design: The RD SMAD reporter (RDSR) cell line was generated by stabily integrating the SMAD cellular reporter plasmid (Promega, pGL4.48[luc2P/SBE/Hygro]) into the human rhabdomyosarcoma cell line RD (ATCC, CCL-136). Once SMAD signaling is triggered, with, for example, the addition of TGF-β 1, receptor activated SMADs bind the SMAD binding elements (SBEs) leading to the expression of intracellular luciferase. To determine the potency of compounds at inhibiting TGF-beta induced SMAD signaling, the RDSR reporter system was utilized. The rhabdomyosarcoma line RD (ATCC, CCL-136) was transfected with a SMAD reporter vector (Promega, E3671) and a polyclonal stable cell line was selected using hygromycin B. The transfected vector contains three copies of a SMAD-binding element (SBE) that drive transcription of the luciferase reporter gene luc2P (Photinus pyralis). luc2P is a synthetically-derived luciferase sequence with humanized codon optimization that is designed for high expression and reduced anomalous transcription. The luc2P gene contains hPEST, a protein destabilization sequence, which allows luc2P protein levels to respond more quickly than those of luc2 to induction of transcription. The intracellular luciferase is quantified by the addition of equal volume (100 μl) of ONE-GLO substrate (Promega, E6120) and read within ten minutes on the Envision plate reader. The stable RDSR cell line was tested by evaluating the response to human TGF-β1 (R&D Systems, 7754-BH-005) as well as human myostatin (R&D Systems, 788-G8-010/CF) in a concentration dependent manner after twenty-four hours of stimulation. […] For compound evaluation, the tool drugs Galunisertib and Vactosertib were included as positive controls. The tool drugs and the compounds of the invention being tested were all incubated with cells for one hour at 37° C. before stimulation with 200 pg/ml rhTGF-beta1 for twenty-four hours. The activity of the reporter was determined with the addition of ONE-GLO (Promega) substrate and luminescence counts collected on the Envision plate reader (Perkin Elmer). […] The activity of compounds of the invention as determined using this method are reported in the third column of Table 1, below.

[2] = system: phospho-SMAD2 (Ser 465/467) in A549 xenograft; test: A549 xenograft study, tumor phospho SMAD2; type: in vivo, mouse; conditions: for phospho SMAD2 levels in tumor (normalized to GAPDH): 10, 50, 75, 100 mg/Kg; for inhibition at 10 mg/kg / inhibition at 50 mg/kg / inhibition at 75 mg/kg / inhibition at 100 mg/kg: Mus musculus, A549, oral gavage, 3 hours after administration, read-out: Percent of p-SMAD2 inhibition compared to vehicle control
Description: To test compounds for in vivo on-target activity (ALK5/TGF-βR1 inhibition), a study was completed using an A549 murine xenograft model. This model was utilized since an ALK5 inhibitor is expected to reduce the amount of the key TGF-β signaling molecule phosphoSMAD2 in the A549 xenograft cells. The TGF-β mediated phosphorylation in A549 cells takes place at amino acid residue four hundred and sixty-five and four hundred and sixty-seven (both are serine residues).
Eight-week old, female athymic nude mice (Charles River) were injected with approximately four million A549 cells (ATCC, CCL-185). The cells employed were harvested and resuspended in plain RPMI media (no phenol red added) and matrigel (Fisher Scientific) at a one to one ratio. Injection comprised a two-hundred microliter sample injected into the right hind flank of each mouse. Resulting tumors were measured every three days by caliper and as tumors reached an average of one hundred and thirty millimeters cubed, mice were randomized in groups of three.
All compounds were resuspended in 1-Methyl-2-pyrrolidinone (10%) plus 20% Solutol in water (90%). Galunisertib was included as a positive control and given at seventy-five milligram per kilogram to three mice. The drug suspensions were sonicated for fifteen minutes to generate a fine particle suspension before being administered to a subject. Mice were dosed (per oral gavage) at dose levels of one hundred mg/Kg, seventy-five mg/Kg, fifty mg/Kg and ten mg/Kg with three mice in each group. A vehicle control group with three mice was used to establish the baseline level of phospho SMAD2 in the tumor xenograft. Three hours after drug administration, tumors were harvested and stored at negative eighty degrees Celsius until further processing. The phospho SMAD2 levels were determined using the BioPlex Pro anti phospho-SMAD2 (Ser 465/467) beads from Biorad and this signal was normalized using GAPDH levels from each sample (Milliplex MAP GAPDH beads, Sigma/Millipore). Tumors were processed according to kit instructions and beads analyzed using the MagPix instrument by Luminex.

[3] = system: TGF-β1 mediated alpha-SMA expression in primary human bronchial fibroblasts derived from IPF patients; test: Fibroblast to Myofibroblast Transformation (FMT) assay
Protocol: To test the ability of compounds of the invention to inhibit the TGF-β1 dependent transition of fibroblasts to myofibroblasts in a relevant disease model of IPF, a study was carried out using an FMT assay employing lung fibroblasts from IPF patients. In this model the transition of fibroblasts to myofibroblasts is determined by the expression of the biomarker alpha smooth muscle actin (SMA).
Each drug concentration condition was evaluated in biological duplicates. One hour after compound addition, cells were stimulated with 1.25 ng/ml of TGF-01 and cultured for 72 hours thereafter. At the end of 72 hours cells were fixed using formaldehyde. The results were generated using high content imaging after staining cells using the nuclear stain DAPI as well as evaluation of the expression of alpha SMA. […] As a negative control 0.1% DMSO was used matching the DMSO concentration in treated wells.

[4] = 200 pg/ml rhTGF-beta1, 24 h, read-out: RD-SMAD reporter activity

ALK-5, sequence (P36897 34-503): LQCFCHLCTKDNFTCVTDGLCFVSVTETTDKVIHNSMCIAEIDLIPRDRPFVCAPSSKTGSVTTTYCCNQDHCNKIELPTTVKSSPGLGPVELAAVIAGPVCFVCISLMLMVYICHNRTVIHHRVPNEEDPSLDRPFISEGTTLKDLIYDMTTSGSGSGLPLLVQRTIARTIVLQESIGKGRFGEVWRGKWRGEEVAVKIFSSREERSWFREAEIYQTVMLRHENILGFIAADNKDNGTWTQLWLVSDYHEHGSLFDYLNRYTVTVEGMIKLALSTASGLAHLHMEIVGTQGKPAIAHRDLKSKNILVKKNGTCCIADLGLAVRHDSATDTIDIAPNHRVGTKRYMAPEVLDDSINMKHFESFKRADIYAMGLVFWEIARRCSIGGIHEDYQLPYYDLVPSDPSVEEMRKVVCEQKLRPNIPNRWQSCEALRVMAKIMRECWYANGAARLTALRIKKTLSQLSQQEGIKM

For `Cc1cccc2c(Nc3ccnc(Nc4ccc(N5CCOCC5)c(F)c4)n3)cnnc12` [EX-13, N2-(3-fluoro-4-morpholino-phenyl)-N4-(8-methylcinnolin-4-yl)-pyrimidine-2,4-diamine], the “Kinase Selectivity: ALK2 IC50/ ALK5 IC50” value (ALK-5) was “(++) (10<ALK2/ALK5<100=[++])”, the IC50 (ALK-5) was < 0.01 µM and the IC50 [1, 4] was < 100 nM. For the same compound, the “phospho SMAD2 levels in tumor (normalized to GAPDH)” value [2] was “reduced the phopho SMAD2 levels (p-SMAD2) in a dose dependent fashion”, the inhibition at 10 mg/kg [2] was 37.9% and the inhibition at 50 mg/kg [2] was 76.3%. For the same compound, the inhibition at 75 mg/kg [2] was 76.8% and the inhibition at 100 mg/kg ([2]; 100 mg/Kg) was 75.7%.

In the case of `COC(=O)c1ccc2c(c1)NC(=O)/C2=C(\Nc1ccc(N(C)C(=O)CN2CCN(C)CC2)cc1)c1ccccc1` [Nintedanib, reference compound], the “LogM IC50 αSMA” value ([3]; donor IPF05) is reported as −6.5 LogM, the “Max PIN (%)” value ([3]; donor IPF05) is reported as 92.1% and the “LogM IC50 αSMA” value ([3]; donor IPF06) is reported as −6.3 LogM. The “Max PIN (%)” value ([3]; donor IPF06) was 86.8%, the “LogM IC50 αSMA” value ([3]; donor IPF08) was −6.4 LogM and the “Max PIN (%)” value ([3]; donor IPF08) was 88.2%.

For `Cc1cccc(-c2nn3c(c2-c2ccnc4ccc(C(N)=O)cc24)CCC3)n1` [Galunisertib, reference compound], the IC50 ([1]; 200 pg/ml rhTGF-beta1, 24 h, control compounds, read-out: RDSR reporter activity) was ~365 nM, the “LogM IC50 αSMA” value ([3]; donor IPF05) was −5.7 LogM and the “Max PIN (%)” value ([3]; donor IPF05) was 100.8%. The “LogM IC50 αSMA” value ([3]; donor IPF06) was −5.9 LogM, the “Max PIN (%)” value ([3]; donor IPF06) was 104.4% and the “potentially toxic (>25% loss of nuclei)” value ([3]; donor IPF06) was >−5.5. For the same compound, the “LogM IC50 αSMA” value ([3]; donor IPF08) was −5.9 LogM and the “Max PIN (%)” value ([3]; donor IPF08) was 99.6%.

`Cc1cccc2c(Nc3ccnc(Nc4ccc(N5CCOCC5)c(Cl)c4)n3)cnnc12` [EX-12, N2-(3-chloro-4-morpholino-phenyl)-N4-(8-methyl-cinnolin-4-yl)-pyrimidine-2,4-diamine] was tested, and the “Kinase Selectivity: ALK2 IC50/ ALK5 IC50” value (ALK-5) was “(++) (10<ALK2/ALK5<100=[++])”, the IC50 (ALK-5) was < 0.01 µM and the IC50 [1, 4] was < 100 nM. The “observed level of p-SMAD2 as percent of vehicle-only group” value ([2]; 100 mg/Kg) was 45.5%, the “phospho SMAD2 levels in tumor (normalized to GAPDH)” value [2] was “reduced the phopho SMAD2 levels (p-SMAD2) in a dose dependent fashion” and the inhibition at 10 mg/kg [2] was 19.9%. It also gave an inhibition at 50 mg/kg [2] of 35.8%, an inhibition at 75 mg/kg [2] of 40.1% and an inhibition at 100 mg/kg ([2]; 100 mg/Kg) of 55.5%.

`c1cc(C2CC2)c2nncc(Nc3ccnc(Nc4ccc(N5CCOCC5)cc4)n3)c2c1` [EX-58, N4-(8-cyclopropylcinnolin-4-yl)-N2-(4-morpholinophenyl)pyrimidine-2,4-diamine] was tested, and the “Kinase Selectivity: ALK2 IC50/ ALK5 IC50” value (ALK-5) was “(++) (10<ALK2/ALK5<100=[++])”, the IC50 (ALK-5) was < 0.01 µM and the IC50 [1, 4] was < 100 nM.

With `Cc1cccc2c(Nc3ccnc(Nc4cc(CC5CCNCC5)ccc4F)n3)cnnc12` [EX-16, N2-(2-fluoro-5-(piperidin-4-ylmethyl)-phenyl)-N4-(8-methyl-cinnolin-4-yl)-pyrimidine-2,4-diamine] the “Kinase Selectivity: ALK2 IC50/ ALK5 IC50” value (ALK-5) was “(++) (10<ALK2/ALK5<100=[++])”, the IC50 (ALK-5) was 0.01 to 0.1 µM and the IC50 [1, 4] was 100 to 1000 nM.

For `Cc1ccc(F)c2c(Nc3ccnc(Nc4ccc(N5CCN(C)CC5)cc4)n3)cnnc12` [EX-24, N4-(5-fluoro-8-methylcinnolin-4-yl)-N2-(4-(4-methylpiperazin-1-yl)phenyl)pyrimidine-2,4-diamine], the “Kinase Selectivity: ALK2 IC50/ ALK5 IC50” value (ALK-5) was “(++) (10<ALK2/ALK5<100=[++])”, the IC50 (ALK-5) was < 0.01 µM and the IC50 [1, 4] was < 100 nM.

In the case of `Cc1cccc2c(Nc3ccnc(Nc4ccc(CC5CCNCC5)cc4)n3)cnnc12` [EX-05, N4-(8-methylcinnolin-4-yl)-N2-(4-(piperidin-4-ylmethyl)pheny)pyrimidine-2,4-diamine], the “Kinase Selectivity: ALK2 IC50/ ALK5 IC50” value (ALK-5) is reported as “(++) (10<ALK2/ALK5<100=[++])”, the IC50 (ALK-5) is reported as < 0.01 µM and the IC50 [1, 4] is reported as 100 to 1000 nM.

`Cc1cccc2c(Nc3ccnc(Nc4ccc(Cl)cc4)n3)cnnc12` [EX-29, N2-(4-chlorophenyl)-N4-(8-methylcinnolin-4-yl)pyrimidine-2,4-diamine] was tested, and the “Kinase Selectivity: ALK2 IC50/ ALK5 IC50” value (ALK-5) was “(++) (10<ALK2/ALK5<100=[++])”, the IC50 (ALK-5) was < 0.01 µM and the IC50 [1, 4] was < 100 nM.

`Cc1cccc2c(Nc3ccnc(Nc4cccc(CN5CCOCC5)c4)n3)cnnc12` [EX-47, N4-(8-methylcinnolin-4-yl)-N2-(3-(morpholinomethyl)phenyl)pyrimidine-2,4-diamine] was tested, and the “Kinase Selectivity: ALK2 IC50/ ALK5 IC50” value (ALK-5) was “(++) (10<ALK2/ALK5<100=[++])”, the IC50 (ALK-5) was < 0.01 µM and the IC50 [1, 4] was < 100 nM.

`Cc1cccc2c(Nc3ccnc(Nc4cc(F)cc(CN5CCNCC5)c4)n3)cnnc12` [EX-06, N2-(3-fluoro-5-(piperazin-1-ylmethyl)phenyl)-N4-(8-methyl-cinnolin-4-yl)pyrimidine-2,4-diamine] was tested, and the “Kinase Selectivity: ALK2 IC50/ ALK5 IC50” value (ALK-5) was “(+) (≤10=[+])”, the IC50 (ALK-5) was < 0.01 µM and the IC50 [1, 4] was < 100 nM.

With `Cc1cccc2c(Nc3ccnc(Nc4ccc(N5CCNCC5)c(F)c4)n3)cnnc12` [EX-08, N2-(3-fluoro-4-(piperazin-1-yl)phenyl)-N4-(8-methylcinnolin-4-yl)pyrimidine-2,4-diamine] the “Kinase Selectivity: ALK2 IC50/ ALK5 IC50” value (ALK-5) was “(++) (10<ALK2/ALK5<100=[++])”, the IC50 (ALK-5) was < 0.01 µM and the IC50 ([1]; 24 h, read-out: RD-SMAD reporter activity (nM)) was < 100 nM.
